Data as given in patent US20230265435A1, “COMPOSITION COMPRISING OSTEOPONTIN INHIBITOR AS ACTIVE INGREDIENT FOR PREVENTION, ALLEVIATION, OR TREATMENT OF NEURODEGENERATIVE DISEASE” (THE CATHOLIC UNIVERSITY OF KOREA INDUSTRY-ACADEMIC …, priority 2020, published 2023).

System: neural stem cells
Assay: Amyloid beta toxicity, MTT assay, OPN antagonist treatment
Format: cell-based
Protocol: Next, to confirm the function of the OPN protein for amyloid beta neurotoxicity, the inventors confirmed the level of amyloid beta toxicity according to the treatment of an OPN antagonist or OPN siRNA using neuronal cells.
Specifically, approximately 5×10^4 neural stem cells were seeded in a 24-well plate, and cultured at 37° C. in a CO2 incubator for 24 hours. The medium in the cell-containing plate was replaced with an antibiotic-free, 0.1% serum-containing medium, treated with 0.5 μM levocetirizine (Sigma-Aldrich, L7795, OPN antagonist), and after 6 to 7 hours, the cells were further treated with 3 μM amyloid beta, and after 48 hours of culture, cell viability was confirmed through an MTT assay.

Substance	cell viability (neural stem cells treated with 3 μM amyloid beta alone)	amyloid beta toxicity (0.5 μM levocetirizine with 3 μM amyloid beta, 48 hours)
amyloid beta	approximately 60%	
levocetirizine		greatly decreased
